Values quoted from earlier work, collected in publication PMC4381587, “A novel PI3K inhibitor PIK-C98 displays potent preclinical activity against multiple myeloma” (Oncotarget, 2014).

Experiments:
[1] = system: relapsed chronic lymphocytic leukemia; parameters: method as in PMID 24450857, PMID 24450858; conditions: phase II, single agent; cited from earlier work
[2] = system: relapsed indolent lymphoma; parameters: method as in PMID 24450857, PMID 24450858; conditions: phase II, single agent; cited from earlier work

In the case of `CC[C@H](Nc1ncnc2[nH]cnc12)c1nc2cccc(F)c2c(=O)n1-c1ccccc1` [idelalisib], the overall complete rate [1] is given as 72% and the total response rate [2] is given as 57%.
